Results on seven compounds are retold here after publication PMC10999543, “Identification of kinase modulators as host-directed therapeutics against intracellular methicillin-resistant Staphylococcus aureus” (Frontiers in Cellular and Infection Microbiology, 2024).

Where two headings read alike, the source gives them in different places.

For series [1], the system named is intracellular MRSA. The format is cell-based, Staphylococcus aureus. To be noted: for %GFP+ rep 1 / z-scoreMRSA+ rep 1: replicate 1; for %GFP+ rep 2 / z-scoreMRSA+ rep 2: replicate 2; for %GFP+ rep 3 / z-scoreMRSA+ rep 3: replicate 3; for z-scoreMRSA+ mean: mean of 3 replicates. In outline:
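Values are z-scores: GFP-positive HeLa percentage and event count per well against plate statistics, minus the mean DMSO z-score. Wells deviating two-fold from controls were left out of plate means. Infection was at a mean MOI of 6.8, with an overnight compound exposure.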

Series [2] deals with HeLa cells. Put plainly: Compound screen by flow cytometry: HeLa cell count as surrogate readout of cell viability (z-scoreHeLa). As to all read-outs here: test concentration or dose not given here. In kind it is cell-based, human. As to conditions: for cell count rep 1 / z-scoreHeLa rep 1: replicate 1; for cell count rep 2 / z-scoreHeLa rep 2: replicate 2; for cell count rep 3 / z-scoreHeLa rep 3: replicate 3; for z-scoreHeLa mean: mean of 3 replicates. In outline:
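The viability surrogate was the count of fixed HeLa cells by flow cytometry, converted to z-scores against DMSO controls with values deviating two-fold excluded. Before counting, cells had been infected with MRSA for 1 h and cleared of extracellular bacteria with gentamicin. They were then exposed overnight to kinase inhibitors in triplicate.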
A general note: Flow cytometry measures light scatter and fluorescence of single cells or particles in a stream.

The mark [3] stands for this setting: PKIS compound screen raw data, MRSA-infected HeLa cells.
[4] abbreviates: Yes/No: effect without cell death.
The mark [5] stands for this setting: compound screen, MRSA-infected HeLa cells.
The mark [6] stands for this setting: PKIS compound screen raw data, HeLa cell count.
[7] abbreviates: compound screen, HeLa cell count.
[8] abbreviates: PKIS compound screen, MRSA-infected HeLa cells.
Setting [9] is: PKIS compound screen, Yes/No call (effect without cell death).
The mark [10] stands for this setting: PKIS compound screen, Yes/No call on z-scoreMRSA+.
Setting [11] is: PKIS compound screen, HeLa cell count.
[12] abbreviates: PKIS compound screen, Yes/No call on z-scoreHeLa.
[13] abbreviates: PKIS compound screen, Yes/No call.
Where [14] appears, read: PKIS compounds raw data, MRSA-infected HeLa cells.
The mark [15] stands for this setting: PKIS compounds raw data, HeLa cell count.
For %GFP+ rep 1 in this document: test concentration or dose not given here.
For %GFP+ rep 2 in this document: test concentration or dose not given here.
For %GFP+ rep 3 in this document: test concentration or dose not given here.
For effect in this document: test concentration or dose not given here.
For z-scoreMRSA+ mean in this document: test concentration or dose not given here.
For z-scoreMRSA+ rep 1 in this document: test concentration or dose not given here.
For z-scoreMRSA+ rep 2 in this document: test concentration or dose not given here.
For z-scoreMRSA+ rep 3 in this document: test concentration or dose not given here.

Turning to `O=C(NCCNc1ccnc(Nc2ccc(F)cc2)n1)Nc1ccccc1F` [GSK1379880A], in series [1] (setting [3]), the “%GFP+ rep 1” value is listed as 25.7%, the “%GFP+ rep 2” value was 21.6% and the “%GFP+ rep 3” value is given as 22.7%. In series [1] (Yes/No call from z-scoreMRSA+), the effect result is listed as “No”. The hit result in series [1] (setting [4]) is on record as “No”. In series [1] (setting [5]), the “z-scoreMRSA+ mean” value came out at 0.00131, the “z-scoreMRSA+ rep 1” value worked out at 0.10, the “z-scoreMRSA+ rep 2” value is -0.25 and the “z-scoreMRSA+ rep 3” value stood at 0.15. In series [2] (setting [6]), the “cell count rep 1” value was 4656, the “cell count rep 2” value stood at 4642 and the “cell count rep 3” value stood at 6039. The cell death result in series [2] (Yes/No call from z-scoreHeLa) is “No”. Besides, in series [2] (setting [7]), the z-scoreHeLa mean is given as 0.33, the “z-scoreHeLa rep 1” value came to 0.22, the “z-scoreHeLa rep 2” value was found to be 0.26 and the “z-scoreHeLa rep 3” value came to 0.51.
`COc1ccc(Nc2nccc(NCCNC(=O)Nc3ccccc3F)n2)cc1` [GSK1379901A]: in series [1] (setting [3]), the “%GFP+ rep 1” value is 25.4%, the “%GFP+ rep 2” value was found to be 21.0% and the “%GFP+ rep 3” value is 21.4%. The effect result in series [1] (Yes/No call from z-scoreMRSA+) is “No”. In addition, the hit result in series [1] (setting [4]) is on record as “No”. In series [1] (setting [5]), the “z-scoreMRSA+ mean” value was -0.20, the “z-scoreMRSA+ rep 1” value is listed as 0.03, the “z-scoreMRSA+ rep 2” value is -0.39 and the “z-scoreMRSA+ rep 3” value is -0.24. In series [2] (setting [6]), the “cell count rep 1” value is recorded as 4960, the “cell count rep 2” value amounted to 3999 and the “cell count rep 3” value is listed as 4730. Also, the cell death result in series [2] (Yes/No call from z-scoreHeLa) is “No”. Further, in series [2] (setting [7]), the z-scoreHeLa mean is -0.04, the “z-scoreHeLa rep 1” value turned out to be 0.44, the “z-scoreHeLa rep 2” value was -0.23 and the “z-scoreHeLa rep 3” value is -0.32.
Regarding `Cc1ccc(NC(=O)c2ccc(Cl)cc2)cc1-c1ccc(C(=O)Nc2ccncc2)cc1` [GSK1398467A], in series [1] (setting [3]), the “%GFP+ rep 1” value was 17.7%, the “%GFP+ rep 2” value amounted to 18.1% and the “%GFP+ rep 3” value came to 16.2%. In series [1] (setting [8]), the “z-scoreMRSA+ mean” value was -0.42, the “z-scoreMRSA+ rep 1” value was -0.05, the “z-scoreMRSA+ rep 2” value is on record as -0.13 and the “z-scoreMRSA+ rep 3” value is given as -1.09. For the same compound, in series [1] (setting [9]), the hit entry was “No”. In series [1] (setting [10]), the effect entry was “No”. In addition, in series [2] (setting [6]), the “cell count rep 1” value is 10600, the “cell count rep 2” value was determined as 12964 and the “cell count rep 3” value is recorded as 20345. Moreover, in series [2] (setting [11]), the z-scoreHeLa mean is recorded as -2.91, the “z-scoreHeLa rep 1” value is -1.44, the “z-scoreHeLa rep 2” value was -4.07 and the “z-scoreHeLa rep 3” value was -3.21. In addition, in series [2] (setting [12]), the cell death entry was “No”.
With `Cc1ccc(NC(=O)Nc2ccccc2)cc1-c1ccc(C(=O)Nc2ccncc2)cc1` [GSK1398471A], the effect result in series [1] (setting [13]) is given as “No”. Also, in series [1] (setting [9]), the hit result is given as “No”. Also, in series [1] (PKIS compound screen), the “z-scoreMRSA+ mean” value was 2.16, the “z-scoreMRSA+ rep 1” value is recorded as 1.78, the “z-scoreMRSA+ rep 2” value was 2.78 and the “z-scoreMRSA+ rep 3” value is 1.92. Besides, in series [1] (setting [14]), the “%GFP+ rep 1” value was determined as 36.2%, the “%GFP+ rep 2” value is 40.5% and the “%GFP+ rep 3” value came to 37.6%. For the same compound, the cell death entry in series [2] (setting [13]) is on record as “No”. In series [2] (PKIS compound screen), the z-scoreHeLa mean is -2.19, the “z-scoreHeLa rep 1” value is recorded as -2.47, the “z-scoreHeLa rep 2” value is given as -2.21 and the “z-scoreHeLa rep 3” value is -1.88. In series [2] (setting [15]), the “cell count rep 1” value was found to be 1939, the “cell count rep 2” value came out at 2675 and the “cell count rep 3” value came out at 2624.
Turning to `Cc1cc(-c2ccnc(Nc3cccc(C#N)c3)n2)cc(C)c1O` [GSK1440913A], in series [1] (setting [3]), the “%GFP+ rep 1” value is 19.8%, the “%GFP+ rep 2” value is recorded as 21.2% and the “%GFP+ rep 3” value was 19.2%. Moreover, the effect result in series [1] (Yes/No call from z-scoreMRSA+) was “No”. Further, the hit result in series [1] (setting [4]) is listed as “No”. Besides, in series [1] (setting [5]), the “z-scoreMRSA+ mean” value was -0.84, the “z-scoreMRSA+ rep 1” value is recorded as -1.28, the “z-scoreMRSA+ rep 2” value is on record as -0.34 and the “z-scoreMRSA+ rep 3” value is -0.90. Besides, in series [2] (setting [6]), the “cell count rep 1” value was found to be 3913, the “cell count rep 2” value came to 3957 and the “cell count rep 3” value turned out to be 5747. Further, the cell death result in series [2] (Yes/No call from z-scoreHeLa) is given as “No”. In series [2] (setting [7]), the z-scoreHeLa mean is -0.09, the “z-scoreHeLa rep 1” value was -0.32, the “z-scoreHeLa rep 2” value was -0.27 and the “z-scoreHeLa rep 3” value is listed as 0.32.
Turning to `CC(C)c1nc(-c2cccc(NS(=O)(=O)c3ccccc3)c2)c(-c2ccnc(Nc3ccc4c(c3)CN(C)CC4)n2)s1` [GSK1649598A], in series [1] (setting [3]), the “%GFP+ rep 1” value stood at 10.0%, the “%GFP+ rep 2” value was found to be 11.1% and the “%GFP+ rep 3” value worked out at 12.2%. In series [1] (setting [8]), the “z-scoreMRSA+ mean” value is recorded as -2.36, the “z-scoreMRSA+ rep 1” value was -2.35, the “z-scoreMRSA+ rep 2” value was -2.27 and the “z-scoreMRSA+ rep 3” value was -2.47. Moreover, the effect result in series [1] (setting [13]) is reported as “No”. In series [1] (setting [9]), the hit entry is “No and Yes”. In series [1] (setting [10]), the effect entry was “Yes”. In addition, in series [1] (PKIS compound screen), the “z-scoreMRSA+ mean” value is given as -0.25, the “z-scoreMRSA+ rep 1” value is -0.30, the “z-scoreMRSA+ rep 2” value was -0.22 and the “z-scoreMRSA+ rep 3” value is -0.22. Moreover, in series [1] (setting [14]), the “%GFP+ rep 1” value was found to be 25.5%, the “%GFP+ rep 2” value amounted to 24.9% and the “%GFP+ rep 3” value was found to be 26.1%. In addition, in series [2] (setting [6]), the “cell count rep 1” value stood at 27349, the “cell count rep 2” value is 20392 and the “cell count rep 3” value is 19957. Further, in series [2] (setting [11]), the z-scoreHeLa mean is -0.37, the “z-scoreHeLa rep 1” value is -0.48, the “z-scoreHeLa rep 2” value is -0.84 and the “z-scoreHeLa rep 3” value is 0.20. For the same compound, the cell death result in series [2] (setting [13]) is on record as “No”. Besides, the cell death entry in series [2] (setting [12]) is “No”. In series [2] (PKIS compound screen), the z-scoreHeLa mean was -0.86, the “z-scoreHeLa rep 1” value was -1.22, the “z-scoreHeLa rep 2” value was -0.62 and the “z-scoreHeLa rep 3” value was -0.73. Besides, in series [2] (setting [15]), the “cell count rep 1” value was 4018, the “cell count rep 2” value is 5078 and the “cell count rep 3” value is 4439.
For the compound `Cc1cc(N2CCC(NS(=O)(=O)c3ccc(F)cc3)CC2)nc(Nc2cccc(C#N)c2)n1` [GSK1653537A], in series [1] (setting [3]), the “%GFP+ rep 1” value amounted to 23.5%, the “%GFP+ rep 2” value came out at 20.6% and the “%GFP+ rep 3” value came to 22.3%. Moreover, the effect result in series [1] (Yes/No call from z-scoreMRSA+) is recorded as “No”. Moreover, in series [1] (setting [4]), the hit result was “No”. Also, in series [1] (setting [5]), the “z-scoreMRSA+ mean” value was -0.29, the “z-scoreMRSA+ rep 1” value is reported as -0.41, the “z-scoreMRSA+ rep 2” value is reported as -0.49 and the “z-scoreMRSA+ rep 3” value is 0.03. Moreover, in series [2] (setting [6]), the “cell count rep 1” value is 5368, the “cell count rep 2” value is on record as 4678 and the “cell count rep 3” value is 5821. The cell death result in series [2] (Yes/No call from z-scoreHeLa) is recorded as “No”. Moreover, in series [2] (setting [7]), the z-scoreHeLa mean stood at 0.46, the “z-scoreHeLa rep 1” value was 0.73, the “z-scoreHeLa rep 2” value is 0.29 and the “z-scoreHeLa rep 3” value was 0.37.
